Data on 26 compounds can be found in patent US6472418B1, “Non-peptide NK1 receptors antagonists” (Warner-Lambert Company, priority 1998, dated 2002).

T1 sequence (P25103 whole entry): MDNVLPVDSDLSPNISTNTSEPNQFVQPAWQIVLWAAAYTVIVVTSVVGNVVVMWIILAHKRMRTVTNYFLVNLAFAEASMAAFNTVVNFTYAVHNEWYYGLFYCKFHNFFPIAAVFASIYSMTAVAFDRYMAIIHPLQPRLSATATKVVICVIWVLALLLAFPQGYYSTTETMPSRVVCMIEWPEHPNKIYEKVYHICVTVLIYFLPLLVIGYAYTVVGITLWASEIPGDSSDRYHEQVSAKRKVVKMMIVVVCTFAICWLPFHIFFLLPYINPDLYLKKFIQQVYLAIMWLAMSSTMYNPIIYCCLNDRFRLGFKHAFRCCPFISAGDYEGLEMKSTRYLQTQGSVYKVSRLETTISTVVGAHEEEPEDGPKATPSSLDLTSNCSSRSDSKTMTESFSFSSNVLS

The first assay has as its target T1, Human NK1 Receptor (Homo sapiens, UniProt P25103).
T1 construct: endogenous in cells; host or cells: Human lymphoma IM9 cells (whole cells)
Description: In Vitro Human NK1 Receptor Binding Assay ([125I]Bolton-Hunter substance P displacement, IM9 cells). The following applies: Human lymphoma IM9 cells, [125I]Bolton-Hunter substance P (0.05-0.1 nM), 50 min at 21° C.; Table 1; read-out: NK1 binding IC50. The procedure:
They have been evaluated in an NK1-receptor binding assay which is described below.
Human lymphoma IM9 cells were grown in RPMI 1640 culture medium supplemented with 10% fetal calf serum and 2 mM glutamine and maintained under an atmosphere of 5% CO2. Cells were passaged every 3-4 days by reseeding to a concentration of 4-8×10^6/40 ml per 175 cm^2 flask. Cells were harvested for experiments by centrifugation at 1000 g for 3 min. Pelleted cells were washed once by resuspension into assay buffer (50 mM Tris HCl pH 7.4, 3 mM MnCl2, 0.02% BSA, […] bacitracin, […] chymostatin, 2 mM phosphoramidon, […] leupeptin) and repeating the centrifugation step before resuspending at a concentration of 2.5×10^6 cells/mL assay buffer. Cells ([…]) were incubated with [^125I]Bolton-Hunter substance P (0.05-0.1 nM) in the presence and absence of varying concentrations of test compounds for 50 min at 21° C. Non-specific binding (10% of the total binding observed under these conditions) was defined by […] [Sar^9, Met(02)^11] substance P. Reactions were terminated by rapid filtration under vacuum onto GF\C filters presoaked in 0.2% PEI for 1-2 h, using a Brandel cell harvester. Filters were washed with 6×1 ml ice-cold Tris HCl (50 mM, pH 7.4) and radioactivity bound determined using a gamma couter. Results were analyzed using iterative curve fitting procedures in RS1 or Graphpad Inplot.
As a reminder, the IC50 is the midpoint of a concentration-inhibition curve. In the case of `C[C@H](NC(=O)[C@@](C)(Cc1c[nH]c2ccccc12)NCc1ccn[nH]1)c1ccccc1` (relative stereo) [Example 21, 3-(1H-Indol-3-yl)-2-methyl-N-(1-phenyl-ethyl)-2-[(2H-pyrazol-3-ylmethyl)-amino]-propionamide, [R-(R*,S*)]], the IC50 is 1810 nM.
Regarding `C[C@H](NC(=O)[C@@H](Cc1c[nH]c2ccccc12)NCc1cccc(O)c1)c1ccccc1` (relative stereo) [Example 17, 2-(3-Hydroxy-benzylamino)-3-(1H-indol-3-yl)-N-(1-phenyl-ethyl)-propionamide, [R-(R*,S*)]], the IC50 stood at 344 nM.
For the compound `C[C@H](NC(=O)[C@@H](Cc1c[nH]c2ccccc12)NCc1cc2ccccc2o1)c1ccccc1` (relative stereo) [Example 6, 2-[(Benzofuran-2-ylmethyl)-amino]-3-(1H-indol-3-yl)-N-(1-phenyl-ethyl)-propionamide, [R-(R*,S*)]], the IC50 came to 0.7 nM.

The assay is the same for the next values; noted with them: Human lymphoma IM9 cells, [125I]Bolton-Hunter substance P; Table 3, array-synthesis products; read-out: IC50 (nM) hNK1.
For the compound `CC(NC(=O)C(Cc1c[nH]c2ccccc12)NCc1cc2ccccc2o1)c1cccc2ccccc12` (centres unmarked) [Example 197, 2-[(Benzofuran-2-ylmethyl)-amino]-3-(1H-indol-3-yl)-N-(1-naphthalen-1-yl-ethyl)-propionamide], the 50% inhibitory concentration (IC50) is 933 nM.
In the case of `O=C(NCc1cccc(O)c1)C(Cc1c[nH]c2ccccc12)NCc1cc2ccccc2o1` (centres unmarked) [Example 308, 2-[(Benzofuran-2-ylmethyl)-amino]-N-(3-hydroxy-benzyl)-3-(1H-indol-3-yl)-propionamide], the half-inhibitory concentration (IC50) amounted to 731 nM.
Same read-out and setting: with `O=C(NCc1ccc(C(F)(F)F)cc1)C(Cc1c[nH]c2ccccc12)NCc1cc2ccccc2o1` (centres unmarked) [Example 283, 2-[(Benzofuran-2-ylmethyl)-amino]-3-(1H-indol-3-yl)-N-(4-trifluoromethyl-benzyl)-propionamide] the figure was 420 nM; with `CC(CNC(=O)C(Cc1c[nH]c2ccccc12)NCc1cc2ccccc2o1)c1ccccc1` (centres unmarked) [Example 233, 2-[(Benzofuran-2-ylmethyl)-amino]-3-(1H-indol-3-yl)-N-(2-phenyl-propyl)-propionamide], 2000 nM.
Regarding `O=C(NCc1cccs1)C(Cc1c[nH]c2ccccc12)NCc1cc2ccccc2o1` (centres unmarked) [Example 232, 2-[(Benzofuran-2-ylmethyl)-amino]-3-(1H-indol-3-yl)-N-thiophen-2-ylmethyl-propionamide], the half-maximal inhibitory concentration (IC50) is 63 nM.
As to `O=C(NCCN1CCNCC1)C(Cc1c[nH]c2ccccc12)NCc1cc2ccccc2o1` (centres unmarked) [Example 193, 2-[(Benzofuran-2-ylmethyl)-amino]-3-(1H-indol-3-yl)-N-(2-piperazin-1-yl-ethyl)-propionamide], the IC50 was more than 10000 nM.
In the case of `O=C(NCCc1ccco1)C(Cc1c[nH]c2ccccc12)NCc1cc2ccccc2o1` (centres unmarked) [Example 251, 2-[(Benzofuran-2-ylmethyl)-amino]-N-(2-furan-2-yl-ethyl)-3-(1H-indol-3-yl)-propionamide], the IC50 was 129 nM.
On to `O=C(NCC1CC2CCC1C2)C(Cc1c[nH]c2ccccc12)NCc1cc2ccccc2o1` (centres unmarked) [Example 266, 2-[(Benzofuran-2-ylmethyl)-amino]-N-bicyclo[2.2.1]-hept-2-ylmethyl-3-(1H-indol-3-yl)-propionamide], for which the IC50 amounted to 633 nM.
On the same count and under the same terms, the value for `CN1CCCC1CCNC(=O)C(Cc1c[nH]c2ccccc12)NCc1cc2ccccc2o1` (centres unmarked) [Example 198, 2-[(Benzofuran-2-ylmethyl)-amino]-3-(1H-indol-3-yl)-N-[2-(1-methyl-pyrrolidin-2-yl)-ethyl]-propionamide] was more than 10000 nM.

Staying with this assay, now noted: Table 4; [125I]Bolton-Hunter substance P displacement, human IM9 cells; read-out: IC50 (nM) hNK1.
For `CC(NC(=O)C(C)(Cc1c[nH]c2ccccc12)NCCNC(=O)CN1C(=O)c2ccccc2C1=O)c1ccccc1` (centres unmarked) [compound 321, 2-{2-[2-(1,3-Dioxo-1,3-dihydro-isoindol-2-yl)-acetylamino]-ethylamino}-3-(1H-indol-3-yl)-2-methyl-N-(1-phenyl-ethyl)-propionamide], the IC50 is 3040 nM.

The assay is the same for the next values; noted with them: Table 5; [125I]Bolton-Hunter substance P displacement, human IM9 cells; read-out: IC50 (nM) hNK1.
On to `CC(NC(=O)C(Cc1c[nH]c2ccccc12)NCc1cccc(Cl)c1)c1ccccc1` (centres unmarked) [compound 400], for which the IC50 is 13 nM.
As for `CC(NC(=O)C(Cc1c[nH]c2ccccc12)NCc1ccccc1OCc1cccnc1)c1ccccc1` (centres unmarked) [compound 361], the IC50 was found to be 729 nM.
Consider `COC(=O)c1ccc(CNC(Cc2c[nH]c3ccccc23)C(=O)NC(C)c2ccccc2)cc1` (centres unmarked) [compound 374], for which the IC50 stood at 1910 nM.

Still in this assay, the particulars now being: human NK1 receptor, IM9 cells, [125I]Bolton-Hunter substance P; read-out: IC50 (nM) hNK1.
In the case of `COc1ccc(CNC(=O)C(C)(Cc2c[nH]c3ccccc23)NCc2cc3ccccc3o2)cc1F` (centres unmarked) [compound 187, 2-[(Benzofuran-2-ylmethyl)-amino]-N-(3-fluoro-4-methoxy-benzyl)-3-(1H-indol-3-yl)-2-methyl-propionamide], the IC50 worked out at 131 nM.
As for `CC(Cc1c[nH]c2ccccc12)(NCc1cc2ccccc2o1)C(=O)NCCc1cccnc1` (centres unmarked) [compound 145, 2-[(Benzofuran-2-ylmethyl)-amino]-3-(1H-indol-3-yl)-2-methyl-N-(2-pyridin-3-yl-ethyl)-propionamide], the IC50 is 1300 nM.
In the case of `CC(Cc1c[nH]c2ccccc12)(NCc1cc2ccccc2o1)C(=O)NCCN1CCCCC1` (centres unmarked) [compound 125, 2-[(Benzofuran-2-ylmethyl)-amino]-3-(1H-indol-3-yl)-2-methyl-N-(2-piperidin-1-yl-ethyl)-propionamide], the IC50 is more than 10000 nM.
For `CC(Cc1c[nH]c2ccccc12)(NCc1cc2ccccc2o1)C(=O)NCc1ccc(Cl)cc1` (centres unmarked) [compound 64, 2-[(Benzofuran-2-ylmethyl)-amino]-N-(4-chloro-benzyl)-3-(1H-indol-3-yl)-2-methyl-propionamide], the IC50 was 76 nM.
With `CC(NC(=O)C(C)(Cc1c[nH]c2ccccc12)NCc1cc2ccccc2o1)C1=CCCO1` (centres unmarked) [compound 146, 2-[(Benzofuran-2-ylmethyl)-amino]-N-[1-(4,5-dihydro-furan-2-yl)-ethyl]-3-(1H-indol-3-yl)-2-methyl-propionamide], the IC50 came to 3590 nM.
The same measure, in the same setting: the value for `CC(Cc1c[nH]c2ccccc12)(NCc1cc2ccccc2o1)C(=O)NCC(C)(C)c1ccccc1` (centres unmarked) [compound 133, 2-[(Benzofuran-2-ylmethyl)-amino]-3-(1H-indol-3-yl)-2-methyl-N-(2-methyl-2-phenyl-propyl)-propionamide] was 4480 nM; that for `CC(Cc1c[nH]c2ccccc12)(NCc1cc2ccccc2o1)C(=O)NCc1cccs1` (centres unmarked) [compound 137, 2-[(Benzofuran-2-ylmethyl)-amino]-3-(1H-indol-3-yl)-2-methyl-N-thiophen-2-ylmethyl-propionamide] was 100 nM; that for `CC(Cc1c[nH]c2ccccc12)(NCc1cc2ccccc2o1)C(=O)NCc1ccc(N)c2ccccc12` (centres unmarked) [compound 141, N-(4-Amino-naphthalen-1-ylmethyl)-2-[(benzofuran-2-ylmethyl)-amino]-3-(1H-indol-3-yl)-2-methyl-propionamide] was 2340 nM.
Consider `CC1(CNC(=O)C(C)(Cc2c[nH]c3ccccc23)NCc2cc3ccccc3o2)OCCO1` (centres unmarked) [compound 126, 2-[(Benzofuran-2-ylmethyl)-amino]-3-(1H-indol-3-yl)-2-methyl-N-(2-methyl-[1,3]dioxolan-2-ylmethyl)-propionamide], for which the 50% inhibitory concentration (IC50) was found to be 6790 nM.
Take `CC(Cc1c[nH]c2ccccc12)(NCc1cc2ccccc2o1)C(=O)NCc1ncc(C(=O)O)c(O)n1` (centres unmarked) [compound 43, 2-{[2-[(Benzofuran-2-ylmethyl)-amino]-3-(1H-indol-3-yl)-2-methyl-propionylamino]-methyl}-4-hydroxy-pyrimidine-5-carboxylic acid]: the IC50 worked out at 3610 nM.
